Test results: patent US20200113852A1, “METHODS OF PATIENT SELECTION AND TREATING TRXR- OR PRDX-OVEREXPRESSED CANCERS” (TRIACT THERAPEUTICS, INC., priority 2017, published 2020)

Assays:
HCT116 cells [1] = experiment: Iniparib metabolites release, XLC-MS/MS of incubation media; type: in vitro ADME, human; design: unit not given beside the values
Experimental: (§1) Online solid phase extraction (SPE) was performed using the fully automated Spark Holland Symbiosis™ (Emmen, The Netherlands) in eXtraction Liquid Chromatography (XLC) mode. The Symbiosis™ has previously been described in detail (18). HySphere™ C18 HD 7 μm SPE cartridges were used (Spark Holland). Each cartridge was initially conditioned with 2 ml methanol+0.5% formic acid (FA) and then equilibrated with 2 ml water+0.5% FA, both at flow-rates of 4 ml/min. Sample (25 μl) was aspirated and loaded onto the cartridge with 1 ml water+0.5% FA at a flow-rate of 1 ml/min. […] After elution, the right clamp was washed successively with 2 ml water+0.5% FA, 2 ml methanol+0.5% FA and 2 ml water+0.5% FA at 4 ml/min. […] The mobile phase composition was returned to starting conditions over 1 min and maintained during 6 min for column equilibration. The total run time was 27 min. Mass spectrometry was performed using the Thermo® TSQ Quantum Discovery Max in electrospray positive ionization mode (Thermo, US) with the following parameters: capillary voltage=4.0 kV, capillary temperature=300° C., sheath gas pressure=40, auxiliary gas pressure=5.
(§2) All values are expressed as means±SEM of three independent experiments. ND., non detectable.

MDA-MB-453 cells [2] = experiment: as above; type: in vitro ADME, human; design: unit not given beside the values
Experimental: as §1, §2

HCT116 cells [3] = experiment: Apoptosis and necrosis assay (DiOC2(3)/DAPI flow cytometry); type: cell-based, human
Experimental: (§3) Cells were seeded in 6-well tissue culture plates (2.5×10^5 cells/well). MDA-MB-453 and HCT116 cells were first pre-treated or not for 48 h with 1 mM BSO. […] Cell-conditioned culture media, that may contain detached cells, were then collected and attached cells were trypsinized. Cells were combined with their corresponding conditioned media and collected by centrifugation at 1500 rpm for 10 min at 4° C. […] Cell- and DNA-associated fluorescence signals were quantified using a FACS-Aria (BD Biosciences) and data were analyzed with the […] software (BD Biosciences).

MDA-MB-453 cells [4] = experiment: as above; type: cell-based, human; conditions: MDA-MB-453 without GSH depletion
Experimental: as §3

TrxR1 = target: T1, TrxR1 (Homo sapiens, UniProt Q16881); experiment: In vitro Iniparib-biotin TrxR adduct formation on immunoprecipitated TrxR with or without NADPH; type: binding
T1 sequence (Q16881 1-499 isoform Q16881-5): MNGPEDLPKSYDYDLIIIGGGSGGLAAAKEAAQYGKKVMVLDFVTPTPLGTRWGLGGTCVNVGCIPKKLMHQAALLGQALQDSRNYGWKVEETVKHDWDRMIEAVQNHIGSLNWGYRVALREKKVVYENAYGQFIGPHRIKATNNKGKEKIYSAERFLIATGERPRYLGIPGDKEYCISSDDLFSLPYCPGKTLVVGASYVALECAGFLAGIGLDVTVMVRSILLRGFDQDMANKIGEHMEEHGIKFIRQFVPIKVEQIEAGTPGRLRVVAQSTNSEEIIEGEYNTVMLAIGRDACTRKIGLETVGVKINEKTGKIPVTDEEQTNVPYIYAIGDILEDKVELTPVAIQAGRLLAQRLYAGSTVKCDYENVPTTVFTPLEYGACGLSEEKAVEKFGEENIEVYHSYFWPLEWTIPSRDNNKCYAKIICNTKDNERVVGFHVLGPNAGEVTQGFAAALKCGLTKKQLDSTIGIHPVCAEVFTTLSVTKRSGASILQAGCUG

| SMILES | Iniparib and metabolites in incubation media (HCT116 cells [1]; HCT116 w BSO, 1 h after 100 μM Iniparib) | Iniparib and metabolites in incubation media (HCT116 cells [1]; HCT116 w BSO, 5 h after 100 μM Iniparib) | Iniparib and metabolites in incubation media (HCT116 cells [1]; HCT116 w BSO, 24 h after 100 μM Iniparib) | Iniparib and metabolites in incubation media (HCT116 cells [1]; HCT116 w/o BSO, 1 h after 100 μM Iniparib) | Iniparib and metabolites in incubation media (HCT116 cells [1]; HCT116 w/o BSO, 5 h after 100 μM Iniparib) | Iniparib and metabolites in incubation media (MDA-MB-453 cells [2]; MDA-MB-453 w BSO, 1 h after 100 μM Iniparib) | Iniparib and metabolites in incubation media (MDA-MB-453 cells [2]; MDA-MB-453 w BSO, 5 h after 100 μM Iniparib) | Iniparib and metabolites in incubation media (MDA-MB-453 cells [2]; MDA-MB-453 w BSO, 24 h after 100 μM Iniparib) | Iniparib and metabolites in incubation media (MDA-MB-453 cells [2]; MDA-MB-453 w/o BSO, 1 h after 100 μM Iniparib) | Iniparib and metabolites in incubation media (MDA-MB-453 cells [2]; MDA-MB-453 w/o BSO, 5 h after 100 μM Iniparib) | Iniparib and metabolites in incubation media (MDA-MB-453 cells [2]; MDA-MB-453 w/o BSO, 24 h after 100 μM Iniparib) | treatment time from which apoptotic phenotype clearly detected (HCT116 cells [3]; GSH-depleted HCT116, 100 μM) [h] | cell death phenotype (HCT116 cells [3]; GSH-depleted HCT116, 9 h, 100 μM) | apoptotic phenotype induction (MDA-MB-453 cells [4]) | adduct formation with TrxR1 (TrxR1; NADPH provided) | covalent labeling of TrxR1 (TrxR1; absence of NADPH) |
| --- | --- | --- | --- | --- | --- | --- | --- | --- | --- | --- | --- | --- | --- | --- | --- | --- |
| NC(=O)c1ccc(I)c([N+](=O)[O-])c1 [Iniparib, 4-iodo-3-nitrobenzamide] | 87.6 ± 3.5 | 84.5 ± 6.7 | 72.9 ± 7.4 | 59.2 ± 0.6 | 8.9 ± 0.4 | 91.4 ± 5.1 | 88.9 ± 10.2 | 74.2 ± 10.8 | 87.1 ± 1.3 | 64.0 ± 8.8 | 12.2 ± 4.3 | 6 | induced both necrotic and late apoptotic related phenotypes | much slower than in HCT116 cells | – | – |
| O=C(CCCC[C@@H]1SC[C@@H]2NC(=O)N[C@@H]21)NCCNC(=O)c1ccc(I)c([N+](=O)[O-])c1 [Iniparib-biotin, 4-iodo-3-nitro-N-(2-(5-((3 aS,4S,6aR)-2-oxohexahydro-1H-thieno[3,4-d]imidazol-4-yl)pentanamido)ethyl)benzamide] | – | – | – | – | – | – | – | – | – | – | – | – | – | – | able to form adducts with TrxR1 to a large extent | almost no covalent labeling |
